Tested on: P-selectin
Assay: P-Selectin Adhesion Receptor Binding (cell-free ELISA, inhibition of P-selectin binding to immobilized sulfatides)
From the text: P-selectin (GMP140, granule membrane protein-140, PADGEM, or CD62) is a calcium-dependent transmembrane protein found in alpha granules of endothelial cells and platelets. It is an inducible selectin produced on activated endothelium and platelets which recognize alpha(2-3)sialylated and alpha(1-3)fucosylated lactosaminoglycans which include the sequence, Lewis x (Zhou et al., J. Cell. Biol., (1991) 115 (2): 557-564) and sulfatides (3-sulfated galactosyl ceramides, Aruffo, et al., Cell (1991) 67: 35-44). P-selectin may be responsible for the initial adhesion events between endothelium and neutrophils as evidenced by leukocyte rolling induced by P-selectin in flow cells (Lawrence, M., and T. Springer, Cell (1991) 65: 859-873).
Based on the availability of soluble forms of P-selectin prepared as described by Aruffo, A., et al., Cell, 67, 35-44 (1991), a binding ELISA based assay modified from Foxall, et al., J., Cell Biol., 117, 895-902 (1992) was developed to measure inhibitors of P-selectin binding to immobilized sulfatides. Such inhibitors were tested in the assay described below.
0.1 ml of sulfatide (SIGMA) at 1 μg/ml in MeOH was added to 48 wells of a 96-well ELISA plate (ProBind, Falcon) and allowed to dry overnight at room temperature. Another set of 48 wells were incubated with the solvent (methanol, Fisher Scientific). The next day the antigen/solvent coated plates were blocked for 1.5 hours at room temperature with 5% BSA (ICN) in buffer containing 20 mM Hepes, 1 mM CaCl2 and 0.15M NaCl, pH 8.0. Wild type P-selectin was first mixed with HRP-conjugated goat anti-human IgG (1:5000 dilution, Fisher Scientific), and incubated for 30 minutes at 37° C. in buffer containing 20 mM Hepes, 0.15M NaCl, 1% BSA and 1 mM CaCl2, pH 8.0 prior to addition to the BSA blocked plates. Following the 30 minute preincubation, the fusion protein-HRP conjugate immunocomplexes were incubated on the blocked antigen coated plates for 45 minutes at 37° C. in the presence or absence of the test compounds and then washed to remove any unbound proteins. Bound complexes were detected by addition of substrate buffer (95 mM NaOAc.3H2 O, 5 mM citric acid monohydrate, 1.4 mM urea/H2 O2) containing 3, 3', 5, 5' Tetramethylbenzidine (SIGMA). Reactions were stopped by the addition of 3N sulfuric acid and the absorbance read on an ELISA reader at dual wavelengths 450 and 630 nm. The efficacy of these compounds was compared to that of sulfatide (positive control) or to MeOH (negative control). The data is obtained as percent inhibition of specific binding [formula] and a plot of dose vs. percent inhibition of Rg binding is generated in which IC50 (μM) is calculated and reported as cell free data in Table 1.

Structure (SMILES) | IC50 [nM]
CCCCCCCCCCCCC/C=C/[C@@H](OC(=O)c1ccccc1)[C@H](CO[C@H]1O[C@H](COCC(=O)O)[C@H](OCC(=O)O)[C@H](OC(=O)c2ccccc2)[C@H]1OC(=O)c1ccccc1)NC(=O)CCCCCCCCCCCCCCC [Example 2, (2S,3R,4E)-3-Benzoyloxy-2-hexadecanoylamino-1-[2,3-di-O-benzoyl-4,6-di-O-carboxymethyl-α-D-galactopyranosyloxy]-4-octadecene] | 920
CCCCCC/C=C/[C@@H](OC(=O)c1ccccc1)[C@H](CO[C@H]1O[C@H](COCC(=O)O)[C@H](OCC(=O)O)[C@H](OC(=O)c2ccccc2)[C@H]1OC(=O)c1ccccc1)NC(=O)CCCCCCCCC(=O)OC [Example 8, (2S,3R,4E)-3-Benzoyloxy-2-(9-methoxycarbonyl-nonanoylamino)-1-(2,3-di-O-benzoyl-4,6-di-O-carboxymethyl-α-D-galactopyranosyloxy)-4-undecene] | > 50000
CCCCCCCCCCCCC/C=C/[C@@H](OC(=O)c1ccccc1)[C@H](CO[C@@H]1O[C@H](COCC(=O)O)[C@H](OCC(=O)O)[C@H](OC(=O)c2ccccc2)[C@H]1OC(=O)c1ccccc1)NC(=O)CCCCCCCCCCCCCCC [Example 16, (2S,3R,4E)-2-Hexadecanoylamino-3-benzoyloxy-1-(4,6-di-O-carboxymethyl-2,3-di-O-benzoyl-β-D-galactopyranoside)-4-octadecene] | 3500

Results, then the compound that gave them:

IC50 [nM] | Structure (SMILES)
700 | CCCCCCCCCCCCC/C=C/[C@@H](OC(=O)c1ccccc1)[C@H](CO[C@H]1O[C@H](COCC(=O)O)[C@H](OCC(=O)O)[C@H](O)[C@H]1OC(=O)c1ccccc1)NC(=O)CCCCCCCCCCCCCCC [Example 14, (2S,3R,4E)-3-Benzoyloxy-2-hexadecanoylamino-1-[2-O-benzoyl-4,6-di-O-carboxymethyl-α-D-galactopyranosyloxy]-4-octadecene]
< 30 | CCCCCCCCCCCCC/C=C/[C@@H](OC(=O)c1ccccc1)[C@H](CO[C@@H]1O[C@H](COCC(=O)O)[C@H](OCC(=O)O)[C@H](OC(=O)c2ccccc2)[C@H]1O)NC(=O)CCCCCCCCCCCCCCC [Example 18, (2S,3R,4E)-3-Benzoyloxy-2-hexadecanoylamino-1-[3-O-benzoyl-4,6-di-O-carboxymethyl-β-D-galactopyranosyloxy]-4-octadecene]

From patent publication US5686426A, “Dicarboxymethylated glycolipid derivatives as cell adhesion inhibitors” (Bristol-Myers Squibb Company, priority 1994, dated 1997)
